Data taken from US11718613B2, “N-(phenylsulfonyl)benzamides and related compounds as Bcl-2 inhibitors” (THE REGENTS OF THE UNIVERSITY OF MICHIGAN, priority 2016, dated 2023).
Like-named read-outs stand apart in the source and are kept apart here. Values belong to the compound of their own block, whether it stands above or below them.

Columns and labels:
RS4;11 cells = experiment: RS4;11 cell viability (CCK-8) assay; format: cell-based, human; conditions: 4 days, read-out: RS4;11 IC50 (Bcl-2 dependent)
Protocol: RS4;11 cells were obtained from American Type Culture Collection (ATCC). They were used within three months of thawing fresh vials. Cells were maintained in the recommended culture medium with 10% FBS at 37° C. and an atmosphere of 5% CO2.
The effect of representative Compounds of the Disclosure on cell viability was determined using Cell Counting Kit-8 (CCK-8) assay (Dojindo, Rockville, Md.) according to the manufacturer's instructions. 200 μL of a RS4;11 cell suspension (10000 cells/well) in culture medium were seeded into 96-well plates and cultured overnight. Each tested compound was serially diluted in culture medium, and 20 μL of the compound dilution was added to the corresponding well of the cell plate. After the addition of the tested compound, the cells were incubated at 37° C. in an atmosphere of 5% CO2 for 4 days. At the end of 4 days, 10 μL of CCK-8 solution was added to each well of the plate and incubated for 1-4 hours. The plates were read at 450 nm on the microplate spectrophotometer (Epoch2, BioTek). The readings were normalized to the vehicle cells, and the IC50 was calculated by nonlinear regression analysis using GraphPad Prism 5 software.

Bcl-2 = Bcl-2 (Homo sapiens (Human), UniProt P10415); experiment: Fluorescence polarization competitive binding assay, Bcl-2; conditions: FP competition with Flu-BIM probe; read-out: Inhibitory activity IC50 Bcl-2
Bcl-2, sequence (P10415 whole entry): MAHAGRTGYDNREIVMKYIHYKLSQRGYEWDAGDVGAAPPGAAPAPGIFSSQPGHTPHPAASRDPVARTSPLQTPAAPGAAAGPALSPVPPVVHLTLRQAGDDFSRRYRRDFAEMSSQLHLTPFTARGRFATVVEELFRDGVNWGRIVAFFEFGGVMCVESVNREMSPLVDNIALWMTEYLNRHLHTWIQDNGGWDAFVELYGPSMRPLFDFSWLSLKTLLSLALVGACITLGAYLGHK
Protocol: (§1) Fluorescence polarization values were measured using the Infinite M-1000 plate reader (Tecan U.S., Research Triangle Park, N.C.) in Microfluor 1 96-well, black, round-bottom plates (Thermo Scientific). […] Plates were mixed and incubated at room temperature for 1 hour with gentle shaking to assure equilibrium. […] Equilibrium dissociation constants (Kd) were then calculated by fitting the sigmoidal dose-dependent FP increases as a function of protein concentrations using Graphpad Prism 5.0 software (Graphpad Software, San Diego, Calif.).
(§2) Mixtures of 5 μl of the tested inhibitors in DMSO and 120 μl of pre-incubated protein/probe complexes in the assay buffer were added into assay plates and incubated at room temperature for 2 hours with gentle shaking. […] FP values were measured as described above. IC50 values were determined by nonlinear regression fitting of the competition curves.

Bcl-xL = Bcl-xL (Homo sapiens (Human), UniProt Q07817); experiment: Fluorescence polarization competitive binding assay, Bcl-xL; conditions: FP competition with Flu-BAK probe; read-out: Inhibitory activity IC50 Bcl-xL
Bcl-xL, sequence (Q07817 whole entry): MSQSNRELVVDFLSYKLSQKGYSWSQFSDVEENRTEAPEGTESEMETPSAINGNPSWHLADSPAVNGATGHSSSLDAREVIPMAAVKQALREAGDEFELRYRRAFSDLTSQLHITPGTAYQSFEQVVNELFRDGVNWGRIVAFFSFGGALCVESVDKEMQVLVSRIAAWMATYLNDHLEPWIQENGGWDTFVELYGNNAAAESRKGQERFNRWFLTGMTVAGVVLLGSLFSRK
Protocol: as §1, §2

[1] = tested on: RS4;11 leukemia xenograft; experiment: RS4;11 leukemia xenograft model; format: in vivo; conditions: oral gavage, nude mice
Protocol: The antitumor activity of Cpd. No. 6 (compound 6) was also studied in the RS4;11 leukemia xenograft model. Human RS4;11 tumor cells were injected into nude mice and treatment started on day 11 when the tumor size reached approximately 100 mm^3. Cpd. No. 6 was administered via oral gavage at indicated doses and schedules. Cpd.

Mcl-1 = Mcl-1 (Homo sapiens (Human), UniProt Q07820); experiment: Fluorescence polarization competitive binding assay, Mcl-1; conditions: FP competition with Flu-BID probe; read-out: Inhibitory activity IC50 Mcl-1
Mcl-1, sequence (Q07820 whole entry): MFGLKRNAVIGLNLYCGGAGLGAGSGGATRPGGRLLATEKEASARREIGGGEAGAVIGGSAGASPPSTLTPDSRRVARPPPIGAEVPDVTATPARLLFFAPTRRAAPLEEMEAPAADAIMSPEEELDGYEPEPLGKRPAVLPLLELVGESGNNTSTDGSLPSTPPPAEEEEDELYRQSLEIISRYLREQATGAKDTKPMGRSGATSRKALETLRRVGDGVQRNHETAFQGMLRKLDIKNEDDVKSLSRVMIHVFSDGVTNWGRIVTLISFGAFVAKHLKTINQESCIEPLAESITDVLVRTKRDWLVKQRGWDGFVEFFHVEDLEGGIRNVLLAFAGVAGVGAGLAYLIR
Protocol: as §1, §2

Compound: O=C(NS(=O)(=O)C1=CC2C(C=NN2CC2CCOCC2)C([N+](=O)[O-])=C1)c1ccc(N2CCN(CC3=C(c4ccc(Cl)cc4)CC4(CCC4)CC3)CC2)cc1Oc1cnc2[nH]ccc2c1 (stereo not drawn) [compound 62, 2-((1H-pyrrolo[2,3-b]pyridin-5-yl)oxy)-4-(4-((6-(4-chlorophenyl)spiro[3.5]non-6-en-7-yl)methyl)piperazin-1-yl)-N-((4-nitro-1-((tetrahydro-2H-pyran-4-yl)methyl)-3a,7a-dihydro-1H-indazol-6-yl)sulfonyl)benzamide]
IC50 (RS4;11 cells; Homo sapiens, RS4-11, 96 h): 46 nM | IC50 (Bcl-2): 1.6 nM | IC50 (Bcl-xL): 4 nM

Compound: O=C(NS(=O)(=O)c1ccc(NC[C@H]2COCCO2)c([N+](=O)[O-])c1)c1ccc(N2CCN(CC3=C(c4ccc(Cl)cc4)CC4(CCC4)CC3)CC2)cc1Oc1cnc2[nH]ccc2c1 [Cpd. No. 6, (S)-N-((4-(((1,4-dioxan-2-yl)methyl)amino)-3-nitrophenyl)sulfonyl)-2-((1H-pyrrolo[2,3-b]pyridin-5-yl)oxy)-4-(4-((6-(4-chlorophenyl)spiro[3.5]non-6-en-7-yl)methyl)piperazin-1-yl)benzamide]
antitumor activity (tumor growth) ([1]; FIG. 3): inhibits tumor growth | mouse weight ([1]; FIG. 4): does not cause weight loss in mice

The remaining lines, values ahead:

IC50 (RS4;11 cells): 22 nM
Compound: (R)-N-((4-(((1,4-dioxan-2-yl)methyl)amino)-3- nitrophenyl)sulfonyl)-2-((1H-pyrrolo[2,3- b]pyridin-5-yl)oxy)-4-(1-((6-(4-chlorophenyl)-2- oxaspiro[3.5]non-6-en-7-yl)methyl)-1,2,3,6- tetrahydropyridin-4-yl)benzamide [Cpd. No. 5]

IC50 (RS4;11 cells): 28 nM
Compound: 2-((1H-pyrrolo[2,3-b]pyridin-5-yl)oxy)-4-(1-((6- (4-chlorophenyl)-2-oxaspiro[3.5]non-6-en-7- yl)methyl)-1,2,3,6-tetrahydropyridin-4-yl)-N-((3- nitro-4-(((tetrahydro-2H-pyran-4- yl)methyl)amino)phenyl)sulfonyl)benzamide [compound 9]

IC50 (Mcl-1): > 5000 nM | IC50 (RS4;11 cells): 3.7 nM
Compound: (R)-N-((4-(((1,4-dioxan-2-yl)methyl)amino)-3- nitrophenyl)sulfonyl)-2-((1H-pyrrolo[2,3- b]pyridin-5-yl)oxy)-4-(4-((6-(4-chlorophenyl)-2- oxaspiro[3.5]non-6-en-7-yl)methyl)piperazin-1- yl)benzamide [compound 8]
